Results as given in patent publication US20210238162A1, “CHEMICAL COMPOUNDS” (GlaxoSmithKline Intellectual Property Development Limited, priority 2015, published 2021).
Where a name gives a salt, the structure may show the parent alone.

Test system: male C57BL/mdx mice
Experiment: In vivo functional response to eccentric contraction-induced muscle damage in mdx mice (Duchenne Muscular Dystrophy model)
Design: species or system mouse
Settings: 30 mg/kg BID; 8 month-old male C57BL/mdx mice; FIG. 2
From the text: (§1) Under anesthesia, the right hind limb of a mouse is restrained at the knee and the foot attached to a motorized footplate/force transducer. Needle electrodes are inserted into the upper limb, either side of the sciatic nerve and a current sufficient to elicit a maximal muscle contraction is applied. Muscle tension is produced by moving the footplate to lengthen the plantarflexor muscles while the limb is under maximal stimulation. This is repeated 60 times to fatigue the muscles of the lower limb. Anesthesia, limb immobilization and limb stimulation are then repeated at regular intervals to measure maximal isometric force in the recovering limb. 7 to 9 animals are tested for each test condition.
The force deficit and recovery kinetics following eccentric contraction-induced muscle damage was also evaluated in middle-aged (8 month-old) male C57BL/mdx mice, a preclinical model of Duchenne Muscular Dystrophy. In this dystrophin-null background, the protocol elicited a greater functional deficit (˜75%) and a protracted recovery interval, as shown in the eccentric vehicle controls.

Question: Which “force deficit at 24-hours” value does the source give for `O=C(N[C@H]1CCNC1=O)c1cnc2cc(OC(F)F)c(F)cc2c1` [Example 48, (S)-7-(Difluoromethoxy)-6-fluoro-N-(2-oxopyrrolidin-3-yl)quinoline-3-carboxamide] here?
Answer: significantly blunted the force deficit at 24-hours

Question: And the “rate and extent of functional recovery” value?
Answer: improved both the rate and extent of functional recovery

Biological target: T1, haematopoietic prostaglandin D synthase (H-PGDS) (Homo sapiens, UniProt O60760)
T1 construct: Full length human H-PGDS cDNA (Invitrogen Ultimate ORF IOH13026) was amplified by PCR; made in house; host or cells: E. coli BL21 (DE3*), vector pET22b+
T1 sequence (O60760 whole entry): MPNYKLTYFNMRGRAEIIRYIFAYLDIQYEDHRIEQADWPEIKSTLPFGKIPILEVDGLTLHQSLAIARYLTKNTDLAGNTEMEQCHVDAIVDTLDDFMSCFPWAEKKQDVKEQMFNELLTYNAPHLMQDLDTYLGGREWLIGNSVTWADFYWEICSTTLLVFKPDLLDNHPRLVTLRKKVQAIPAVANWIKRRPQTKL
Experiment: H-PGDS RapidFire High Throughput Mass Spectrometry Assay
Type: biochemical
Settings: H-PGDS RapidFire MS assay, mean pIC50; read-out: Potency Range (mean pIC50) (converted)
In short: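 PGH2 (~10 μM burst) generated in situ from arachidonic acid by FLAG-tagged human COX-2 (Sf9-expressed), then converted to PGD2 by full-length human His-tagged H-PGDS from E. coli. PGD2 and PGF2α (substrate surrogate) quantified by RapidFire SPE-triple quadrupole MS; percent conversion calculated.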

Question: With `O=C(N[C@H]1CCNC1=O)c1cnc2cc(OC(F)F)c(F)cc2c1` [Example 48, (S)-7-(Difluoromethoxy)-6-fluoro-N-(2-oxopyrrolidin-3-yl)quinoline-3-carboxamide] as the molecule, how does the IC50 read?
Answer: 0.01 to 0.0794 µM

Question: With `O=C(N[C@@H]1CC[C@@H](NCC(F)(F)F)C1)c1cnc2cc(OC(F)F)c(F)cc2c1` [Example 64, 7-(difluoromethoxy)-6-fluoro-N-((1R,3R)-3-((2,2,2-trifluoroethyl)amino)cyclopentyl)quinoline-3-carboxamide] as the molecule, how does the IC50 read?
Answer: 0.01 to 0.0794 µM

Question: For `CCOC(=O)c1cnc(N2CC[C@H](NC(=O)c3cnc4cc(OC(F)F)c(F)cc4c3)C2)o1` [Example 80, (S)-Ethyl 2-(3-(7-(difluoromethoxy)-6-fluoroquinoline-3-carboxamido)pyrrolidin-1-yl)oxazole-5-carboxylate trifluoroacetic acid salt], which IC50 is on record?
Answer: 0.01 to 0.0794 µM

Question: Which IC50 does the source give for `N#Cc1cnc(N2CCC(NC(=O)c3cnc4cc(OC(F)F)c(F)cc4c3)CC2)o1` [Example 97, N-(1-(5-Cyanooxazol-2-yl)piperidin-4-yl)-7-(difluoromethoxy)-6-fluoroquinoline-3-carboxamide] here?
Answer: 0.01 to 0.0794 µM

Question: For `CC(C)(O)[C@H]1CC[C@H](NC(=O)c2cnc3cc(Br)ccc3c2)CC1` [Example 191, 7-Bromo-N-(trans-4-(2-hydroxypropan-2-yl)cyclohexyl)quinoline-3-carboxamide], which IC50 is on record?
Answer: 0.01 to 0.0794 µM

Question: Which IC50 does the source give for `C[C@@H](N[C@H]1CC[C@H](NC(=O)c2cnc3cc(OC(F)F)c(F)cc3c2)CC1)C(F)F` [Example 69, 7-(Difluoromethoxy)-N-(trans-4-(((R)-1,1-difluoropropan-2-yl)amino)cyclohexyl)-6-fluoroquinoline-3-carboxamide] here?
Answer: 0.01 to 0.0794 µM

Question: Which IC50 does the source give for `CC(C)(O)[C@H]1CC[C@H](NC(=O)c2cnc3cc(C(F)(F)F)ccc3c2)CC1` [Example 190, N-(trans-4-(2-Hydroxypropan-2-yl)cyclohexyl)-7-(trifluoromethyl)quinoline-3-carboxamide] here?
Answer: 0.1 to 1 µM

Question: How did the IC50 turn out when `C[N+](C)([O-])[C@H]1CC[C@H](NC(=O)c2cnc3cc(OC(F)F)c(Cl)cc3c2)CC1` [Example 208, trans-4-(6-Chloro-7-(difluoromethoxy)quinoline-3-carboxamido)-N,N-dimethylcyclohexanamine oxide] was run?
Answer: 0.01 to 0.0794 µM

Question: For `Cn1nnnc1N1CCC(NC(=O)c2cnc3cc(Br)c(Cl)cc3c2)CC1` [Example 27, 7-Bromo-6-chloro-N-(1-(1-methyl-1H-tetrazol-5-yl)piperidin-4-yl)quinoline-3-carboxamide], which IC50 is on record?
Answer: 0.01 to 0.0794 µM

Question: For `CC(C)(O)[C@H]1CC[C@H](NC(=O)c2cnc3cc(Cl)c(Cl)cc3c2)CC1` [Example 202A, 6,7-Dichloro-N-(trans-4-(2-hydroxypropan-2-VI)cyclohexyl)quinoline-3-carboxamide], which IC50 is on record?
Answer: 0.01 to 0.0794 µM

Question: Which IC50 does the source give for `CCc1ccc2cc(C(=O)NC3CCN(c4nnnn4C)CC3)cnc2c1` [Example 110, 7-Ethyl-N-(1-(1-methyl-1H-tetrazol-5-yl)piperidin-4-yl)quinoline-3-carboxamide] here?
Answer: 0.01 to 0.0794 µM

Question: With `CS(=O)(=O)N1CCC(NC(=O)c2cnc3cc(OC(F)F)ccc3c2)CC1` [Example 7, 7-(Difluoromethoxy)-N-(1-(methylsulfonyl)piperidin-4-yl)quinoline-3-carboxamide] as the molecule, how does the IC50 read?
Answer: 0.01 to 0.0794 µM

Question: How did the IC50 turn out when `O=C(N[C@H]1CCNC1=O)c1cnc2cc(C3CC3)ccc2c1` [Example 45, (S)-7-Cyclopropyl-N-(2-oxopyrrolidin-3-yl)quinoline-3-carboxamide hydrochloride] was run?
Answer: 0.01 to 0.0794 µM

Question: Which IC50 does the source give for `O=C(N[C@H]1CC[C@H](N2CC(F)C2)CC1)c1cnc2cc(OC(F)F)c(Cl)cc2c1` [Example 132, 6-Chloro-7-(difluoromethoxy)-N-(trans-4-(3-fluoroazetidin-1-yl)cyclohexyl)quinoline-3-carboxamide] here?
Answer: < 0.01 µM

Question: Which IC50 does the source give for `CN(C)C(=O)[C@H]1CC[C@H](NC(=O)c2cnc3cc(OC(F)F)ccc3c2)CC1` [Example 5, 7-(Difluoromethoxy)-N-((trans)-4-(dimethylcarbamoyl)cyclohexyl)quinoline-3-carboxamide] here?
Answer: 0.01 to 0.0794 µM

Question: Which IC50 does the source give for `CC(C)(O)CO[C@H]1CC[C@H](NC(=O)c2cnc3cc(OC(F)F)ccc3c2)CC1` [Example 12, 7-(Difluoromethoxy)-N-(trans-4-(2-hydroxy-2-methylpropoxy)cyclohexyl)quinoline-3-carboxamide] here?
Answer: 0.01 to 0.0794 µM

Question: With `C[C@@H](N[C@H]1C[C@H](NC(=O)c2cnc3cc(OC(F)F)c(F)cc3c2)C1)C(F)F` [Example 74, 7-(Difluoromethoxy)-N-(trans-3-(((R)-1,1-difluoropropan-2-yl)amino)cyclobutyl)-6-fluoroquinoline-3-carboxamide] as the molecule, how does the IC50 read?
Answer: 0.01 to 0.0794 µM

Question: Which IC50 does the source give for `CC(=O)c1cc2ncc(C(=O)N[C@H]3CC[C@H](C(C)(C)O)CC3)cc2cc1Cl` [Example 172, 7-Acetyl-6-chloro-N-(trans-4-(2-hydroxypropan-2-yl)cyclohexyl)quinoline-3-carboxamide] here?
Answer: < 0.01 µM

Test system: mdx mice
Experiment: Functional repair following limb muscle injury in mdx mice (FIG. 2)
Type: in vivo
Settings: not given

Question: Which “protection and acceleration of functional repair dose response curves of PGDS Inhibition” value does the source give for `O=C(N[C@H]1CCNC1=O)c1cnc2cc(OC(F)F)c(F)cc2c1` [Example 48, (S)-7-(Difluoromethoxy)-6-fluoro-N-(2-oxopyrrolidin-3-yl)quinoline-3-carboxamide] here?
Answer: protection and acceleration of functional repair

Test system: male C57Bl/6N mice
Experiment: In vivo functional response to muscle injury (eccentric contraction-induced muscle fatigue)
Design: species or system mouse
Settings: PO 1, 3 and 10 mg/kg BID beginning 10 min prior to eccentric contraction challenge, FIG. 1
From the text: as §1

Question: With `CC(C)(O)[C@H]1CC[C@H](NC(=O)c2cnc3cc(OC(F)F)ccc3c2)CC1` [Example 6, 7-(Difluoromethoxy)-N-((trans)-4-(2-hydroxypropan-2-yl)cyclohexyl)quinoline-3-carboxamide] as the molecule, how does the “kinetics of recovery of maximal isometric force” value read?
Answer: acceleration in the kinetics of recovery

Same assay, conditions: PO 3 and 10 mg/kg BID, FIG. 1

Question: How did the “initial magnitude of the injury (isometric limb force 24-hours following protocol initiation)” value turn out when `CC(C)(O)[C@H]1CC[C@H](NC(=O)c2cnc3cc(OC(F)F)ccc3c2)CC1` [Example 6, 7-(Difluoromethoxy)-N-((trans)-4-(2-hydroxypropan-2-yl)cyclohexyl)quinoline-3-carboxamide] was run?
Answer: reduced the initial magnitude of the injury
